This assay concerns the target T1, Alexa fluor-647 labeled human PD-L1-Ig binding to Jurkat cell line over-expressing human PD-1 (Homo sapiens, UniProt Q15116).
T1 construct: expressed in transfected cells; host or cells: Jurkat
The experiment in a line: Jurkat-PD-1 Cell Binding High-Content Screening Assay (CBA): Method 3 (Alexa fluor-647 labeled PD-L1-Ig). The note with it: Jurkat-PD-1 cells, Alexa fluor-647 labeled PD-L1-Ig 177 nM. The gist of the method:
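Jurkat cells over-expressing human PD-1 in RPMI/10% FCS were preincubated 2 h at 37 °C with compound, then exposed 1 h to Alexa fluor-647 labeled human PD-L1-Ig (177 nM final). Cells fixed in 4% paraformaldehyde with Hoechst 33342 and binding quantified by high-content imaging.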

The mark [1] stands for this setting: head μM, read-out: CBA Method 3 μM.

Each structure is given as a SMILES string. Like-named read-outs stand apart in the source and are kept apart here. Numbered stars: 1 amine (or outer) side, 2 acyl side, 3 side chain; on linkers, the order of the positions; unused ones are H or OH. Bridge positions count the residues as written; N and C are the ends. Square brackets hold non-standard residues; d marks the D form. Peptide text beside a SMILES is read from it. * marks the point of attachment. Bip(4'-COOH) = N[C@@H](Cc1ccc(-c2ccc(C(=O)O)cc2)cc1)C(=O)O; Bip(4'-NHAc) = CC(=O)Nc1ccc(-c2ccc(C[C@H](N)C(=O)O)cc2)cc1; X38 = O=C([C@H](CCCn1cc(-c2ccccc2)nn1)N[*:1])[*:2]; Phe(3-CF3) = N[C@@H](Cc1cccc(C(F)(F)F)c1)C(=O)O; Ala(morpholin-4-yl) = N[C@@H](CN1CCOCC1)C(=O)O; Phe(4-CONH2) = NC(=O)c1ccc(C[C@H](N)C(=O)O)cc1; Phe(4-COOH) = N[C@@H](Cc1ccc(C(=O)O)cc1)C(=O)O; Bip = N[C@@H](Cc1ccc(-c2ccccc2)cc1)C(=O)O; Phe(3-Me) = Cc1cccc(C[C@H](N)C(=O)O)c1; Abu(3S-NH2) = C[C@H](N)[C@H](N)C(=O)O; Val(3-OH) = CC(C)(O)[C@H](N)C(=O)O; hPhe = N[C@@H](CCc1ccccc1)C(=O)O; Cha = N[C@@H](CC1CCCCC1)C(=O)O; Suc = O=C(CCC(=O)[*:2])[*:1]; Carboxymethyl = O=C(O)C*; NMeA = CN[C@@H](C)C(=O)O; Orn = NCCC[C@H](N)C(=O)O; Dab = NCC[C@H](N)C(=O)O; Dap = NC[C@H](N)C(=O)O; X42 = CS(=O)(=O)O*

T1 sequence (Q15116 25-288): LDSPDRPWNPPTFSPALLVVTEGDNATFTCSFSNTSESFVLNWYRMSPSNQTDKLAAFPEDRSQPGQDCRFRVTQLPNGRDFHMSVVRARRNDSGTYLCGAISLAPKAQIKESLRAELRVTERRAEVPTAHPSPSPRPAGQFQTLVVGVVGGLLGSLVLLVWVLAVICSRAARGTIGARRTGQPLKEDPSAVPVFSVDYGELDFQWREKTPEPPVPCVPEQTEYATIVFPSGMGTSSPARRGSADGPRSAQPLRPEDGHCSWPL

With `Cc1cccc(C[C@@H]2NC(=O)[C@H](CC(=O)O)NC(=O)[C@H](Cc3ccc(C(=O)O)cc3)NC(=O)[C@H](C)NC(=O)CSC[C@@H](C(=O)N[C@@H](CCN)C(N)=O)NC(=O)[C@H](CCC(=O)O)NC(=O)[C@H](C(C)C)NC(=O)[C@H](CC3CCCCC3)NC(=O)[C@H](CCN)NC(=O)[C@@H](CC(C)C)NC(=O)[C@H](C)N(C)C(=O)[C@H](Cc3ccc(C(=O)O)cc3)NC(=O)[C@H](Cc3ccc(-c4ccccc4)cc3)NC(=O)[C@H](Cc3ccc(C(=O)O)cc3)NC2=O)c1` [Example 5136] ({CH2CO}-A[Phe(4-COOH)]D[Phe(3-Me)][Phe(4-COOH)][Bip][Phe(4-COOH)][NMeA][dL][Dab][Cha]VEC[Dab]-NH2; thioether N-14), the IC50 under setting [1] stood at 0.02 µM.

Turning to `CC(C)C[C@H]1NC(=O)[C@H](C)N(C)C(=O)[C@H](Cc2ccc(C(N)=O)cc2)NC(=O)[C@H](Cc2ccc(-c3ccccc3)cc2)NC(=O)[C@H](Cc2ccc(C(=O)O)cc2)NC(=O)[C@H](Cc2cccc(C(F)(F)F)c2)NC(=O)[C@H](CC(=O)O)NC(=O)[C@H](Cc2ccc(C(=O)O)cc2)NC(=O)[C@H]([C@H](C)N)NC(=O)CSC[C@@H](C(=O)N[C@@H](CCN)C(N)=O)NC(=O)[C@H](CO)NC(=O)[C@H](C(C)(C)O)NC(=O)[C@H](CC2CCCCC2)NC(=O)[C@H](CCN)NC1=O` [Example 5208] ({CH2CO}-[Abu(3S-NH2)][Phe(4-COOH)]D[Phe(3-CF3)][Phe(4-COOH)][Bip][Phe(4-CONH2)][NMeA][dL][Dab][Cha][Val(3-OH)]SC[Dab]-NH2; thioether N-14), under “nM, read-out: CBA Method 3”, the IC50 came to 0.0038 µM.

Regarding `CC(C)C[C@H]1NC(=O)[C@H](C)N(C)C(=O)[C@H](Cc2ccc(C(=O)O)cc2)NC(=O)[C@H](Cc2ccc(-c3ccccc3)cc2)NC(=O)[C@H](Cc2ccc(C(=O)O)cc2)NC(=O)[C@H](Cc2cccc(C(F)(F)F)c2)NC(=O)[C@H](CC(=O)O)NC(=O)[C@H](Cc2ccc(C(=O)O)cc2)NC(=O)[C@H](CC2CCCCC2)NC(=O)CSC[C@@H](C(=O)N[C@@H](CCN)C(N)=O)NC(=O)[C@H](CNC(=O)CCC(=O)O)NC(=O)[C@H](C(C)C)NC(=O)[C@H](CC2CCCCC2)NC(=O)[C@H](CCN)NC1=O` [Example 5228] ({CH2CO}-[Cha][Phe(4-COOH)]D[Phe(3-CF3)][Phe(4-COOH)][Bip][Phe(4-COOH)][NMeA][dL][Dab][Cha]V[Dap](Suc)C[Dab]-NH2; thioether N-14), the IC50 (nM, read-out: CBA Method 3) was found to be 0.0008 µM.

For the compound `CC(=O)Nc1ccc(-c2ccc(C[C@@H]3NC(=O)[C@H](Cc4cccc(C(F)(F)F)c4)NC(=O)[C@H](CC(=O)OS(C)(=O)=O)NC(=O)[C@H](Cc4ccc(C(=O)O)cc4)NC(=O)[C@H]([C@H](C)N)NC(=O)CSC[C@@H](C(=O)N[C@@H](CCN)C(N)=O)NC(=O)[C@H](CC(N)=O)NC(=O)[C@H](C(C)C)NC(=O)[C@H](CC4CCCCC4)NC(=O)[C@H](CCN)NC(=O)[C@@H](CC(C)C)NC(=O)[C@H](C)N(C)C(=O)[C@H](Cc4ccc(C(N)=O)cc4)NC(=O)[C@H](Cc4ccc(-c5ccccc5)cc4)NC3=O)cc2)cc1` [Example 5112] ({CH2CO}-[Abu(3S-NH2)][Phe(4-COOH)]D(X42)[Phe(3-CF3)][Bip(4'-NHAc)][Bip][Phe(4-CONH2)][NMeA][dL][Dab][Cha]VNC[Dab]-NH2; thioether N-14), the IC50 under setting [1] is 0.1 µM.

For the compound `CC(=O)Nc1ccc(-c2ccc(C[C@@H]3NC(=O)[C@H](Cc4cccc(C)c4)NC(=O)[C@H](CC(=O)O)NC(=O)[C@H](CCCn4cc(-c5ccccc5)nn4)NC(=O)[C@H](CN4CCOCC4)NC(=O)CSC[C@@H](C(=O)N[C@@H](CCN)C(N)=O)NC(=O)[C@H](CCC(N)=O)NC(=O)[C@H](C(C)C)NC(=O)[C@H](CC4CCCCC4)NC(=O)[C@H](CCN)NC(=O)[C@@H](CC(C)C)NC(=O)[C@H](C)N(C)C(=O)[C@H](Cc4ccc(C(=O)O)cc4)NC(=O)[C@H](Cc4ccc(-c5ccccc5)cc4)NC3=O)cc2)cc1` [Example 5295] ({CH2CO}-[Ala(morpholin-4-yl)][X38]D[Phe(3-Me)][Bip(4'-NHAc)][Bip][Phe(4-COOH)][NMeA][dL][Dab][Cha]VQC[Dab]-NH2; thioether N-14), where the note is “nM, read-out: CBA Method 3”, the IC50 was found to be 0.0016 µM.

With `CC(C)C[C@H]1NC(=O)[C@H](C)N(C)C(=O)[C@H](Cc2ccc(C(=O)O)cc2)NC(=O)[C@H](Cc2ccc(-c3ccccc3)cc2)NC(=O)[C@H](CCc2ccccc2)NC(=O)[C@H](Cc2cccc(C(F)(F)F)c2)NC(=O)[C@H](CC(=O)O)NC(=O)[C@H](Cc2ccc(C(=O)O)cc2)NC(=O)[C@H](CN2CCOCC2)NC(=O)CSC[C@@H](C(=O)N[C@@H](CCN)C(N)=O)NC(=O)[C@H](CNC(=O)CCC(=O)O)NC(=O)[C@H](C(C)C)NC(=O)[C@H](CC2CCCCC2)NC(=O)[C@H](CCN)NC1=O` [Example 5210] ({CH2CO}-[Ala(morpholin-4-yl)][Phe(4-COOH)]D[Phe(3-CF3)][hPhe][Bip][Phe(4-COOH)][NMeA][dL][Dab][Cha]V[Dap](Suc)C[Dab]-NH2; thioether N-14), under setting [1], the IC50 amounted to 0.14 µM.

With `CC(=O)Nc1ccc(-c2ccc(C[C@@H]3NC(=O)[C@H](Cc4cccc(C(F)(F)F)c4)NC(=O)[C@H](CC(=O)O)NC(=O)[C@H](Cc4ccc(C(=O)O)cc4)NC(=O)[C@H](CC(C)C)NC(=O)CSC[C@@H](C(=O)N[C@@H](CCN)C(N)=O)NC(=O)[C@H](CC(N)=O)NC(=O)[C@H](C(C)C)NC(=O)[C@H](CC4CCCCC4)NC(=O)[C@H](CCN)NC(=O)[C@@H](CC(C)C)NC(=O)[C@H](C)N(C)C(=O)[C@H](CCCN)NC(=O)[C@H](Cc4ccc(-c5ccccc5)cc4)NC3=O)cc2)cc1` [Example 5095] ({CH2CO}-L[Phe(4-COOH)]D[Phe(3-CF3)][Bip(4'-NHAc)][Bip][Orn][NMeA][dL][Dab][Cha]VNC[Dab]-NH2; thioether N-14), the IC50 (nM, read-out: CBA Method 3) is 0.0061 µM.

As for `CC(=O)Nc1ccc(-c2ccc(C[C@@H]3NC(=O)[C@H](Cc4cccc(C(F)(F)F)c4)NC(=O)[C@H](CC(=O)O)NC(=O)[C@H](Cc4ccc(C(=O)O)cc4)NC(=O)[C@H](CC(C)C)NC(=O)CSC[C@@H](C(=O)N[C@@H](CCN)C(N)=O)NC(=O)[C@H](CCC(=O)O)NC(=O)[C@H](C(C)C)NC(=O)[C@H](CC4CCCCC4)NC(=O)[C@H](CCN)NC(=O)[C@@H](CC(C)C)NC(=O)[C@H](C)N(C)C(=O)[C@H](CCCN)NC(=O)[C@H](Cc4ccc(-c5ccccc5)cc4)NC3=O)cc2)cc1` [Example 5094] ({CH2CO}-L[Phe(4-COOH)]D[Phe(3-CF3)][Bip(4'-NHAc)][Bip][Orn][NMeA][dL][Dab][Cha]VEC[Dab]-NH2; thioether N-14), under setting [1], the IC50 was found to be 0.03 µM.

On to `Cc1cccc(C[C@@H]2NC(=O)[C@H](CC(=O)O)NC(=O)[C@H](Cc3ccc(-c4ccc(C(=O)O)cc4)cc3)NC(=O)[C@H](CN3CCOCC3)NC(=O)CSC[C@@H](C(=O)N[C@@H](CCN)C(N)=O)NC(=O)[C@H](CCC(=O)O)NC(=O)[C@H](C(C)C)NC(=O)[C@H](CC3CCCCC3)NC(=O)[C@H](CC(N)=O)NC(=O)[C@@H](CC(C)C)NC(=O)[C@H](C)N(C)C(=O)[C@H](Cc3ccc(OCC(=O)O)cc3)NC(=O)[C@H](Cc3ccc(-c4ccccc4)cc3)NC(=O)[C@H](Cc3ccc(-c4ccc(C(=O)O)cc4)cc3)NC2=O)c1` [Example 5128] ({CH2CO}-[Ala(morpholin-4-yl)][Bip(4'-COOH)]D[Phe(3-Me)][Bip(4'-COOH)][Bip]Y(Carboxymethyl)[NMeA][dL]N[Cha]VEC[Dab]-NH2; thioether N-14), for which the IC50 under setting [1] stood at 0.03 µM.

These data come from patent US20240409585A1, “MACROCYCLIC IMMUNOMODULATORS” (priority 2021, published 2024).
